Key:
Format in all cases: cell-based, human
β-tubulin in HepG2 cells = assay: Immunofluorescence microscopy assay of β-tubulin; conditions: 24 h
Experimental: Resveratrol was previously reported to hamper microtubule function. To examine whether the anti-proliferative activity of compound r, a resveratrol derivative, was related to an interaction with tubulin, we examined β-tubulin in HepG2 cells treated with compound r and by immunofluorescence assay. Compound r ranging from 5 to 45 µM inhibited β-tubulin for 24 h (figure 3). […] In addition, after incubation with compound r (5, 15 and 45 µM), many cells became multinucleated. These phenomena were consistent with those observed with other microtubule-targeted drugs.
Figure 3. Compound r promoted microtubule depolymerization in HepG2 cells. The HepG2 cells were treated with 0, 5, 15 or 45 µM compound r for 24 h, microtubule networks and nuclei were observed by immunofluorescence microscopy assay.
HepG2 cells were cultured in DMEM supplemented with 10% fetal bovine serum on coverslips in 6-well plates and allowed to adhere for at least 12 h. Cells were then incubated in the presence or absence of compound r (0, 5, 15, 45 µM) for 24 h. Control cells were incubated with vehicle alone. […] Cell nuclei were stained with 4,6-diamidino-2-phenylindole (DAPI) and then images were obtained with a fluorescence microscope equipped with a motorized image capture system. […]

A549 cells = assay: MTT anti-proliferation assay, A549; conditions: average of three determinations
Experimental: (§1) The 22 synthesized resveratrol compounds were evaluated for anti-proliferative activities against three human cancer cell lines, including HepG2, A549 and HeLa cells, using 3-[4,5-dimethylthiazol-2-yl]-2,5 diphenyl tetrazolium bromide (MTT) assays. Paclitaxel, a well-known tubulin inhibitor, was used as a positive control. […] Therefore, the inhibitory activity of the compounds depended not only on the 2-position substitution of acrylic acid, but also on the 3-position substitution of acrylic acid.
(§2) The anti-proliferative and cytotoxicity activity was determined using MTT assay. Human cervical carcinoma HeLa cells, human hepatocellular carcinoma HepG2 cells, human lung carcinoma A549 cells were representative in the anti-proliferation assay, which were obtained from the Shanghai Institute of Cell Biology (Shanghai, China). Normal African green monkey kidney Vero cells were a gift from Dr Xiumiao He at Guangxi University for Nationalities. Normal human hepatocytes LO2 cells were a gift from Dr Xing Lin at Guangxi Medical University. The HepG2, Hela, LO2 and Vero cells were cultured in Dulbecco's modified Eagle's medium (DMEM, Gibco) and the A549 cells were cultured in RPMI1640 (Gibco), both media were supplemented with 10% fetal calf serum and antibiotics (100 IU ml^−1 penicillin, 100 IU ml^−1 streptomycin; Amresco).
(§3) Cells were seeded in 96-well microtiter plates at a density of 1 × 10^4 cells well^−1 and incubated with different concentrations of compound (6.25, 12.50, 25.00, 50.00 to 100.00 µM), cisplatin and paclitaxel in RPMI-1640 or DMEM at 37°C with 5% CO2. After 24 h, cell morphology was observed using a light microscope, and then 20 µl of MTT solution (5 mg ml^−1) was added to the well and incubated for 4 h, then cell survival was determined by measuring the optical density (OD) absorbance at a wavelength of 570 nm using an ELISA microplate reader. The inhibition rate (IR) following each compound treatment was determined by the following equation: IR (%) = (1 − ODexp/ODcon) × 100%, where ODexp and ODcon are the OD of the treated and untreated cells, respectively. Cisplatin and paclitaxel were used as positive control drugs.

HepG2 cells [1] = assay: Cell cycle assay by flow cytometry; conditions: 24 h, mean ± s.d.
Experimental: To evaluate the effects of compound r on cell cycle progression of HepG2, cells were treated with compound r at different concentrations (0, 5, 15 and 45 µM) for 24 h and then examined by flow cytometry. The accumulation of cells in S phase increased with increasing concentration of compound r. Approximately 18.36 ± 1.93%, 19.39 ± 2.06%, 29.9 ± 0.87% and 34.24 ± 1.00% of cells were arrested in S phase in response to 0, 5, 15 and 45 µM compound r, respectively. In comparison, 39.56 ± 0.97% cells were arrested in S phase after treatment with 20 µM cisplatin for 24 h.
Figure 5. Cells treated with 0, 5, 15 and 45 µM compound r for 24 h were collected and analysed by flow cytometry. Images were representative of three independent experiments. Values represented the mean ± s.d.; versus blank, *p < 0.01, **p < 0.001; versus control ^#p < 0.01, ^##p < 0.001.
Cells were treated with compound r (0, 5, 15, 45 µM) or 20 µM of cisplatin as the control for 24 h. Cells were collected by centrifugation (1000 rpm, 5 min), washed with PBS and fixed with 70% ice-cold ethanol overnight at 4°C. The cell cycle was examined on a flow cytometer using a cell cycle analysis kit (Beyotime Biotechnologyin, China) in accordance with the manufacturer's instructions.

HepG2 cells [2] = assay: MTT anti-proliferation assay, HepG2; conditions: average of three determinations
Experimental: as §1, §2, §3

- IC50 (A549 cells; 24 h): 3.8 ± 0.3 µM
- IC50 (A549 cells; Homo sapiens, A549, 24 h): 3.77 µM
- IC50 (HepG2 cells [2]; 24 h): 7 ± 1 µM
- IC50 (HepG2 cells [2]; Homo sapiens, HepG2, 24 h): 7.49 µM
Compound: COc1ccc(C(=Cc2cc(C(F)(F)F)ccc2Cl)C(=O)O)cc1 [compound r, 3-(2-chloro-5-(trifluoromethyl)phenyl)-2-(4-methoxyphenyl) acrylic acid]
- microtubule network / cytoskeleton appearance (β-tubulin in HepG2 cells; HepG2, 45 µM): microtubules appeared depolymerized
- microtubule network / cytoskeleton appearance (β-tubulin in HepG2 cells; HepG2, 5 and 15 µM): highly abnormal cytoskeleton
- cells arrested in S phase (HepG2 cells [1]; HepG2, 5 µM): ~19.39 ± 2.06%
- cells arrested in S phase (HepG2 cells [1]; HepG2, 15 µM): ~29.9 ± 0.87%
- cells arrested in S phase (HepG2 cells [1]; HepG2, 45 µM): ~34.24 ± 1.00%

Source: paper PMC6774960, “Design, synthesis and biological evaluation of a series of new resveratrol analogues as potential anti-cancer agents” (Royal Society Open Science, 2019)
